Biological target: GSK3β (Homo sapiens, UniProt P49841)
Assay: Inhibitory activity against GSK3β (33P-ATP phosphorylation of prephosphorylated GS1 peptide, two protocols)
Assay type: biochemical
Description: Two different protocols can be used. In a first protocol: 7.5 μM of prephosphorylated GS1 peptide and 10 μM ATP (containing 300,000 cpm of 33P-ATP) were incubated in 25 mM Tris-HCl, pH 7.5, 0.6 mM DTT, 6 mM MgCl2, 0.6 mM EGTA, 0.05 mg/ml BSA buffer for 1 hour at room temperature in the presence of GSK3beta (total reaction volume: 100 microliters). In a second protocol: 4.1 μM of prephosphorylated GS1 peptide and 42 μM ATP (containing 260,000 cpm 33P-ATP) were incubated in 80 mM Mes-NaOH, pH 6.5, 1 mM Mg acetate, 0.5 mM EGTA, 5 mM 2-mercaptoethanol, 0.02% Tween 20, 10% glycerol buffer for 2 hours at room temperature in the presence of GSK3beta. Inhibitors were solubilized in DMSO (final solvent concentration in the reaction medium, 1%). The reaction was stopped with 100 microliters of a solution made of 25 g polyphosphoric acid (85% P2O5), 126 ml 85% H3PO4, H2O to 500 ml and then diluted to 1:100 before use. An aliquot of the reaction mixture was then transferred to Whatman P81 cation exchange filters and rinsed with the solution described above. Incorporated 33P radioactivity was determined by liquid scintillation spectrometry. The phosphorylated GS-1 peptide used in the example was the same one as reported in Woodgett, J. R. (1989) Analytical Biochemistry 180, 237-241 and had the same sequence as reported therein, which reference is incorporated herein by reference in its entirety.

Chain of GSK3β (P49841 whole entry): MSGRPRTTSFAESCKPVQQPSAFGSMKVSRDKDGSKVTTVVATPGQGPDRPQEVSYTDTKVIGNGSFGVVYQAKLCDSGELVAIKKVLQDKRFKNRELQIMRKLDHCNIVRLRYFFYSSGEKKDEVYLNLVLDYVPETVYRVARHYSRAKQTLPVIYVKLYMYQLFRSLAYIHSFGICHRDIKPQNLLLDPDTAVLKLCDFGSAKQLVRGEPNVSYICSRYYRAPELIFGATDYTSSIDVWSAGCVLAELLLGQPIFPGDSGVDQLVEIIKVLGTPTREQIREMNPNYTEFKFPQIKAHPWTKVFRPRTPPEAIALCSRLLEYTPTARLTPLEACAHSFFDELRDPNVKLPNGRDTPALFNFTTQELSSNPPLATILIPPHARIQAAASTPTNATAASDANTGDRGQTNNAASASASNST

COc1cc(F)ccc1C(=O)NC1CCCn2c1nc(-c1ccncn1)cc2=O (racemic) [compound No. 33 of table 1, (+/−) 4-Fluoro-2-methoxy-N-(4-oxo-2-pyrimidin-4-yl-6,7,8,9-tetrahydro-4H-pyrido[1,2-a]pyrimidin-9-yl)benzamide]
IC50: 5 nM

Reference: US8148364B2, “Substituted bicyclic pyrimidone derivatives” (Sanofi-Aventis, priority 2005, dated 2012)
